Test results published in EP0680973A1, “Peptides, process to prepare them and their use” (priority 1994, dated 1995).
Ends that are not written are not given here.

Test system: HIV-1 Protease
Type: biochemical
Details: bei 50 µM, nur 1 Bestimmung; 5% DMSO

Which “Inhibition der HIV-1 Protease” value does the source give for “PQITLSDRLGGGGDRVSFNF-NH2 [HPQITLSDRLGGGGDRVSFNF-NH₂]” here?
Its value is 36%⁺.
